Measurements reported in patent publication US8809352B2, “Sulfonamides as inhibitors of Bcl-2 family proteins for the treatments of cancer” (Novartis AG, priority 2009, dated 2014).

Target: BCL2 (Homo sapiens, UniProt P10415)
Test: Biacore SPR solution inhibition assay of BCL-2 binding to peptide derivatized sensor surfaces
Settings: SPR competition; 56 nM BCL2 pre-equilibrated with compound one hour; biotinylated BAK, BAD and NOXA peptide surfaces; 25° C.
Text: The present method includes utility of a Surface plasmon resonance (SPR)-based biosensor (Biacore™ GE Healthcare, Uppsala, Sweden) to characterize BCL-2 inhibitors.
Biacore™ utilizes the phenomenon of surface plasmon resonance (SPR) to detect and measure binding interactions. In a typical Biacore experiment, one of the interacting molecules (ligand) is immobilized on a flexible dextran matrix while the interacting partner (analyte) is allowed to flow across that surface. A binding interaction results in an increase in mass on the sensor surface and a corresponding direct change in the refractive index of the medium in the vicinity of the sensor surface. Changes in refractive index or signal are recorded in resonance units (R.U.) Signal changes due to association and dissociation of complexes are monitored in a non-invasive manner, continuously and in real-time, the results of which are reported in the form of a sensorgram. The SPR assay is configured to examine solution inhibition of BCL-2 binding to peptide derivatized sensor surfaces to generate […] values as a measure of inhibitor potency.
Biacore™ A100 (GE Healthcare, Uppsala, Sweden) was used to conduct all experiments reported herein. Sensor surface preparation and all interaction analyses experiments were performed at 25° C. Reagents were purchased from GE Healthcare. Running buffer containing 10 mM Hepes, pH7.4, 150 mM sodium chloride, 1.25 mM Dithiothreitol, 3% Dimethyl sulfoxide and 0.05% polysorbate 20 were utilized throughout all analyses.
Biotinylated BAK, BAD and NOXA peptides were diluted to 10 nM in running buffer and captured onto a sensor surface pre-derivatized with streptavidin (sensor chip SA) to peptide surface densities in the range 50-100 R.U. Peptide captured surfaces were blocked with 500 μM PEO2-Biotin.
Interaction analyses were performed by first equilibrating each sample within a 6 point three fold compound dilution series in the range 16 μM to 0.004 nM with 56 nM BCL2 for one hour during instrument start-up procedures. Protein compound mixtures were then injected over each peptide surface in parallel for 60 seconds at a flow-rate of 30 μL/min. 56 nM BCL2 control samples were also prepared and run at regular intervals during the assay. Surface regeneration was performed at the end of each analysis cycle by two 30 second injections of 10 mM Glycine, pH 2.5, 1M Sodium Chloride, 0.05% polysorbate 20. Samples and control compound samples were run in duplicate and controls are also run at regular intervals during the assay to monitor surface and assay performance.
Data analyses are carried out using Biacore™ A100 evaluation software v1.1 to validate assay quality. Binding level report points were used relative to BCL2 control samples to calculate % inhibition values for each compound protein mixture.

Sequence of BCL2 (P10415 whole entry): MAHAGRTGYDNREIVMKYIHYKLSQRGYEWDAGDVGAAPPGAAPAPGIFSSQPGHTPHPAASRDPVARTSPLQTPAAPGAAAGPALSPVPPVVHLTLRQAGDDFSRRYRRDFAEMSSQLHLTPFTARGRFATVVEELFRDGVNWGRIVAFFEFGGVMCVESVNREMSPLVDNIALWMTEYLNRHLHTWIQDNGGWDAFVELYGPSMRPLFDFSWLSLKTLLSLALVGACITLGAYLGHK

Row | Structure (SMILES) | IC50 [nM]
1 | CN(C)CC[C@H](CSc1cccc(Cl)c1)Nc1ccc(S(=O)(=O)Nc2ncnc3c2CCN(C2CCN(Cc4ccccc4-c4ccc(Cl)cc4)CC2)C3)cc1S(=O)(=O)C(F)(F)F [Example 26, N-{7-[1-(4′-Chloro-biphenyl-2-ylmethyl)-piperidin-4-yl]-5,6,7,8-tetrahydro-pyrido[3,4-c]pyrimidin-4-yl}-4-[(R)-1-(3-chloro-phenylsulfanylmethyl)-3-dimethylamino-propylamino]-3-trifluoromethanesulfonyl-benzenesulfonamide] | 48
2 | CC1CC(N2CCc3c(ncnc3NS(=O)(=O)c3ccc(N[C@H](CCN4CCOCC4)CSc4ccccc4)c(S(=O)(=O)C(F)(F)F)c3)C2)CCN1CC1=C(c2ccc(Cl)cc2)CC(C)(C)CC1 (stereo partly drawn) [Example 27, N-(7-(1-((2-(4-chlorophenyl)-4,4-dimethylcyclohex-1-enyl)methyl)-2-methylpiperidin-4-yl)-5,6,7,8-tetrahydropyrido[3,4-d]pyrimidin-4-yl)-4-((R)-4-morpholino-1-(phenylthio)butan-2-ylamino)-3-(trifluoromethylsulfonyl)benzenesulfonamide] | 206
3 | CN(C)CC[C@H](CSc1ccccc1Cl)Nc1ccc(S(=O)(=O)Nc2ncnc3c2CCN(C2CCN(CC4=C(c5ccc(Cl)cc5)CC(C)(C)CC4)CC2)C3)cc1S(=O)(=O)C(F)(F)F [Example 28, (R)-N-(7-(1((2-(4-chlorophenyl)-4,4-dimethylcyclohex-1-enyl)methyl)piperidin-4-yl)-5,6,7,8-tetrahydropyrido[3,4-d]pyrimidin-4-yl)-4-(1-(2-chlorophenylthio)-4-(dimethylamino)butan-2-ylamino)-3-(trifluoromethylsulfonyl)benzenesulfonamide] | 44
4 | CC(c1ccccc1-c1ccc(Cl)cc1)N1CCC(N2CCc3c(ncnc3NS(=O)(=O)c3ccc(N[C@H](CCN(C)C)CSc4ccccc4Cl)c(S(=O)(=O)C(F)(F)F)c3)C2)CC1 (stereo partly drawn) [Example 29, N-(7-(1-(1-(4′-chlorobiphenyl-2-yl)ethyl)piperidin-4-yl)-5,6,7,8-tetrahydropyrido[3,4-d]pyrimidin-4-yl)-4-((R)-1-(2-chlorophenylthio)-4-(dimethylamino)butan-2-ylamino)-3-(trifluoromethylsulfonyl)benzenesulfonamide] | 73
5 | O=S(=O)(Nc1ncnc2c1CCN(C1CCN(Cc3ccccc3-c3ccc(Cl)cc3)CC1)C2)c1ccc(N[C@H](CCN2CCCCC2)CSc2ccccc2)c(S(=O)(=O)C(F)(F)F)c1 [Example 30, (R)-N-(7(1-((4′-chlorobiphenyl-2-yl)methyl)piperidin-4-yl)-5,6,7,8-tetrahydropyrido[3,4-d]pyrimidin-4-yl)-4-(l-(phenylthio)-4-(piperidin-1-yl)butan-2-ylamino)-3-(trifluoromethylsulfonyl)benzenesulfonamide] | 128
6 | CC(c1cc(F)ccc1-c1ccc(Cl)cc1)N1CCC(N2CCc3c(ncnc3NS(=O)(=O)c3ccc(N[C@H](CCN4CCOCC4)CSc4ccccc4)c(S(=O)(=O)C(F)(F)F)c3)C2)CC1 (stereo partly drawn) [Example 31, N-(7-(1-(1-(4′-chloro-4-fluorobiphenyl-2-yl)ethyl)piperidin-4-yl)-5,6,7,8-tetrahydropyrido[3,4-d]pyrimidin-4-yl)-4-((R)-4-morpholino-1-(phenylthio)butan-2-ylamino)-3-(trifluoromethylsulfonyl)benzenesulfonamide] | 84
7 | CN(C)CC[C@H](CSc1ccccc1Cl)Nc1ccc(S(=O)(=O)Nc2nc(C(F)(F)F)nc3c2CCN(C2CCN(CC4=C(c5ccc(Cl)cc5)CC(C)(C)CC4)CC2)C3)cc1S(=O)(=O)C(F)(F)F [Example 32, (R)-N-(7-(1-((2-(4-chlorophenyl)-4,4-dimethylcyclohex-1-enyl)methyl)piperidin-4-yl)-2-(trifluoromethyl)-5,6,7,8-tetrahydropyrido[3,4-d]pyrimidin-4-yl)-4-(1-(2-chlorophenylthio)-4-(dimethylamino)butan-2-ylamino)-3-(trifluoromethylsulfonyl)benzenesulfonamide] | 87
8 | CN(C)CC[C@H](CSc1ccccc1Cl)Nc1ccc(S(=O)(=O)Nc2nc(C(F)(F)F)nc3c2CCN(C2CCN(Cc4ccccc4-c4ccc(Cl)cc4)CC2)C3)cc1S(=O)(=O)C(F)(F)F [Example 33, (R)-N-(7-(1-((4′-chlorobiphenyl-2-yl)methyl)piperidin-4-yl)-2-(trifluoromethyl)-5,6,7,8-tetrahydropyrido[3,4-d]pyrimidin-4-yl)-4-(1-(2-chlorophenylthio)-4-(dimethylamino)butan-2-ylamino)-3-(trifluoromethylsulfonyl)benzenesulfonamide] | 73
9 | CC(c1ccccc1-c1ccc(Cl)cc1)N1CCC(N2CCc3c(nc(C(F)(F)F)nc3NS(=O)(=O)c3ccc(N[C@H](CCN(C)C)CSc4ccccc4Cl)c(S(=O)(=O)C(F)(F)F)c3)C2)CC1 (stereo partly drawn) [Example 34, N-(7-(1-(1-(4′-chlorobiphenyl-2-yl)ethyl)piperidin-4-yl)-2-(trifluoromethyl)-5,6,7,8-tetrahydropyrido[3,4-d]pyrimidin-4-yl)-4-((R)-1-(2-chlorophenylthio)-4-(dimethylamino)butan-2-ylamino)-3-(trifluoromethylsulfonyl)benzenesulfonamide] | 99
10 | CC(c1cc(F)ccc1-c1ccc(Cl)cc1)N1CCC(N2CCc3c(ncnc3NS(=O)(=O)c3ccc(N[C@H](CCN4CCN(C)CC4)CSc4ccccc4)c(S(=O)(=O)C(F)(F)F)c3)C2)CC1 (stereo partly drawn) [Example 35, N-(7-(1-(1-(4′-chloro-4-fluorobiphenyl-2-yl)ethyl)piperidin-4-yl)-5,6,7,8-tetrahydropyrido[3,4-d]pyrimidin-4-yl)-4-((R)-4-(4-methylpiperazin-1-yl)-1-(phenylthio)butan-2-ylamino)-3-(trifluoromethylsulfonyl)benzenesulfonamide] | 80
11 | COc1ccc(-c2ccc(Cl)cc2)c(CN2CCC(N3CCc4c(ncnc4NS(=O)(=O)c4ccc(N[C@H](CCN(C)C)CSc5ccccc5)c(S(=O)(=O)C(F)(F)F)c4)C3)CC2)c1 [Example 36, (R)-N-(7-(1-((4′-chloro-4-methoxybiphenyl-2-yl)methyl)piperidin-4-yl)-5,6,7,8-tetrahydropyrido[3,4-d]pyrimidin-4-yl)-4-(4-(dimethylamino)-1-(phenylthio)butan-2-ylamino)-3-(trifluoromethylsulfonyl)benzenesulfonamide] | 34
12 | CN(C)CC[C@H](CSc1ccc(F)cc1)Nc1ccc(S(=O)(=O)Nc2ncnc3c2CCN(C2CCN(Cc4ccccc4-c4ccc(Cl)cc4)CC2)C3)cc1S(=O)(=O)C(F)(F)F [Example 37, N-{7-[1-(4′-Chloro-biphenyl-2-ylmethyl)-piperidin-4-yl]-5,6,7,8-tetrahydro-pyrido[3,4-d]pyrimidin-4-yl}-4-[(R)-3-dimethylamino-1-(4-fluoro-phenylsulfanylmethyl)-propylamino]-3-trifluoromethanesulfonyl-benzenesulfonamide] | 58
13 | CN(C)CC[C@H](CSc1c(Cl)cccc1Cl)Nc1ccc(S(=O)(=O)Nc2ncnc3c2CCN(C2CCN(Cc4ccccc4-c4ccc(Cl)cc4)CC2)C3)cc1S(=O)(=O)C(F)(F)F [Example 38, (R)-N-(7-(1-((4′-chlorobiphenyl-2-yl)methyl)piperidin-4-yl)-5,6,7,8-tetrahydropyrido[3,4-d]pyrimidin-4-yl)-4-(1-(2,6-dichlorophenylthio)-4-(dimethylamino)butan-2-ylamino)-3-(trifluoromethylsulfonyl)benzenesulfonamide] | 41
14 | CN(C)CC[C@H](CSc1ccc(Cl)c(Cl)c1)Nc1ccc(S(=O)(=O)Nc2ncnc3c2CCN(C2CCN(Cc4ccccc4-c4ccc(Cl)cc4)CC2)C3)cc1S(=O)(=O)C(F)(F)F [Example 39, N-{7-[1-(4′-Chloro-biphenyl-2-ylmethyl)-piperidin-4-yl]-5,6,7,8-tetrahydro-pyrido[3,4-d]pyrimidin-4-yl}-4-[(R)-1-(3,4-dichloro-phenylsulfanylmethyl)-3-dimethylamino-propylamino]-3-trifluoromethanesulfonyl-benzenesulfonamide] | 41
15 | CN(C)CC[C@H](CSc1ccccc1Cl)Nc1ccc(S(=O)(=O)Nc2ncnc3c2CCN(C2CCN(Cc4ccccc4-c4ccc(Cl)cc4)CC2)C3)cc1S(=O)(=O)C(F)(F)F [Example 40] | 32
